Results from paper PMC9115112, “A2B adenosine receptor antagonists rescue lymphocyte activity in adenosine-producing patient-derived cancer models” (Journal for Immunotherapy of Cancer, 2022).

System: sarcoma TILs against autologous tumor cells
Experiment: Chromium (51Cr) release cytotoxicity assay, sarcoma TILs
Assay type: cell-based, human
Settings: synthetic ADO, 24 hours
Protocol: Chromium (51Cr) release cytotoxicity assay
Chromium (51Cr) release assay was used to measure the autologous TILs-mediated cytotoxicity against the established patient-derived breast and […] cell lines. Briefly, breast and sarcoma tumor cells were labelled with 51Cr (PerkinElmer) as target cells and seeded on 96-well V-bottom plate (Corning) at 5 000cells/well. Effector TILs were added at the indicated Effector: Target (E:T) ratios. The supernatants were collected carefully into LUMA plates (PerkinElmer) after 24 and 48 hours of co-culture. After drying overnight, radioactivity of the plate was read with MicroBeta2 (PerkinElmer).
Relative adenosine production assay
An ectonucleotidase CD73 assay was optimized to measure the relative ADO production based on competitive AMP blockade and presence of CD73+ cells. Day five patient-derived sarcoma spheroids were digested and split into triplicates in X-VIVO20 and 1% PS culture media with an excessive amount of AMP at 0.4mM (Sigma-Aldrich) incubated for 30 minutes.
After 1500 RPM was applied for three minutes, 25 μL supernatant were removed and mixed with 25 μL of 200 μM ATP (Sigma-Aldrich) in the same media. 25 μL of this mixture was added to a white opaque OptiPlate (PerkinElmer) containing 25 μL Cell-Titer Glo reagent (Promega, US). Relative luminescence unit (RLU) can be read on SPARK 10M plate reader with an integration time of 100ms. […]

CC1=C(C(=O)OC(C)C)C(c2ccco2)n2c(nc3ccccc32)N1Cc1ccccc1F (stereo not shown) [ISAM-R56A]
Rescue of killing in sarcoma TILs against autologous tumor cells: also rescued killing
